This passage reports IC50 results from patent US9896418B2, “Aryl ethers and uses thereof” (Peloton Therapeutics, Inc., priority 2013, dated 2018).

For the assay, the system named is HIF-2α HIS TAG-PASB Domain. Kind of assay: HIF-2α Scintillation Proximity Assay (SPA). The assay is classed as binding. Here is the method: The percent inhibition was determined and IC50 values were calculated using the Dotmatics system based on the following equation: % inhibition=[(high control−sample)/(high control−low control)]×100.

As usually defined, the IC50 is the concentration needed to halve the response being measured. A higher IC50 goes with weaker potency. The compound `N#Cc1cncc(Oc2ccc(S(N)(=O)=O)c3c2[C@@H](F)C(F)(F)[C@H]3O)c1` [Compound 340, (1R,3S)-7-[(5-cyano-3-pyridyl)oxy]-1,2,2-trifluoro-3-hydroxy-indane-4-sulfonamide] registered an IC50 of 0.024 µM.
The result for `CCS(=O)(=O)c1ccc(Oc2cc(F)cc(Cl)c2)c2c1C(O)CC2` (stereo not shown) [Compound 91, 4-(3-Chloro-5-fluorophenoxy)-7-(ethylsulfonyl)-2,3-dihydro-1H-inden-1-ol] reads 0.28 µM; that for `Cc1c(S(=O)(=O)C(F)F)ccc(Oc2cc(F)cc(Cl)c2)c1C#N` [Compound 32, 6-(3-Chloro-5-fluorophenoxy)-3-((difluoromethyl)sulfonyl)-2-methylbenzonitrile], 0.018 µM.
The result for `CS(=O)(=O)c1ccc(Oc2cc(F)cc(C#N)c2)c2c1C(=O)C(F)(Cl)C2` (stereo not shown) [Compound 269, 3-((2-chloro-2-fluoro-7-(methylsulfonyl)-1-oxo-2,3-dihydro-1H-inden-4-yl)oxy)-5-fluorobenzonitrile] reads 0.31 µM.
The result for `CS(=O)(=O)c1ccc(Oc2cc(F)cc(Cl)c2)c2c1C(O)CC2` (stereo not shown) [Compound 90, 4-(3-Chloro-5-fluorophenoxy)-7-(methylsulfonyl)-2,3-dihydro-1H-inden-1-ol] reads 0.23 µM; that for `Cc1c(Oc2cc(F)cc(C#N)c2)ccc(S(=O)(=O)C(F)(F)F)c1C#CCO` [Compound 142, 3-Fluoro-5-[3-(3-hydroxyprop-1-ynyl)-2-methyl-4-(trifluoromethylsulfonyl)phenoxy]benzonitrile], 13 µM.
Consider `CC1(O)c2c(S(=O)(=O)C(F)F)ccc(Oc3cc(F)cc(C#N)c3)c2CC1(F)F` (stereo not shown) [Compound 13, 3-[7-(difluoromethylsulfonyl)-2,2-difluoro-1-hydroxy-1-methyl-indan-4-yl]oxy-5-fluoro-benzonitrile], for which inhibition was half-maximal at 6.6 µM (IC50).
The result for `N#Cc1cncc(Oc2ccc(S(=O)(=O)C(F)(F)F)c3c2C[C@@H](F)[C@H]3O)c1` [Example 225, 5-(((1S,2R)-2-Fluoro-1-hydroxy-7-((trifluoromethyl)sulfonyl)-2,3-dihydro-1H-inden-4-yl)oxy)nicotinonitrile] reads less than 0.005 µM; that for `N#Cc1cc(F)cc(Oc2ccc(S(=O)(=O)C(F)(F)F)c3c2CC(F)(F)[C@H]3O)c1` [Example 185, (S)-3-((2,2-Difluoro-1-hydroxy-7-((trifluoromethyl)sulfonyl)-2,3-dihydro-1H-inden-4-yl)oxy)-5-fluorobenzonitrile], less than 0.005 µM.
The result for `Cc1c(S(=O)(=O)C(F)F)ccc(Oc2cc(F)cc(F)c2)c1C#N` [Compound 34, 3-((Difluoromethyl)sulfonyl)-6-(3,5-difluorophenoxy)-2-methylbenzonitrile] reads less than 0.005 µM.
The result for `CO[C@H]1c2c(S(C)(=O)=O)ccc(Oc3cc(F)cc(C#N)c3)c2CC1(F)F` [Compound 210, (S)-3-((2,2-Difluoro-1-methoxy-7-(methylsulfonyl)-2,3-dihydro-1H-inden-4-yl)oxy)-5-fluorobenzonitrile] reads 17 µM; that for `O=Cc1c(S(=O)(=O)C(F)(F)F)ccc(Oc2cc(F)cc(Cl)c2)c1Cl` [Compound 112, 2-Chloro-3-(3-chloro-5-fluorophenoxy)-6-((trifluoromethyl)sulfonyl)benzaldehyde], 0.04 µM.
Turning to `N#Cc1cc(F)cc(Oc2ccc(S(=O)(=O)C(F)(F)F)cc2C#N)c1` [Compound 120, 2-(3-Cyano-5-fluorophenoxy)-5-((trifluoromethyl)sulfonyl)benzonitrile], the IC50 was 0.34 µM.
The result for `CS(=O)(=O)c1ccc(Oc2cc(F)cc(C#N)c2)c(C(F)F)c1C#N` [Compound 94, 3-(3-Cyano-5-fluorophenoxy)-2-(difluoromethyl)-6-(methylsulfonyl)benzonitrile] reads 0.13 µM; that for `CS(=O)(=O)c1ccc(Oc2cncc(C#N)c2)c2c1[C@H](O)C(F)(F)[C@H]2F` [Compound 343, 5-(((1S,3S)-2,2,3-trifluoro-1-hydroxy-7-(methylsulfonyl)-2,3-dihydro-1H-inden-4-yl)oxy)nicotinonitrile], 23.9 µM; that for `O=S(=O)(c1ccc(Oc2cc(F)cc(Cl)c2)c(Cl)c1CNCCF)C(F)(F)F` [Compound 114, N-(2-Chloro-3-(3-chloro-5-fluorophenoxy)-6-((trifluoromethyl)sulfonyl)benzyl)-2-fluoroethan-1-amine], 1.1 µM.
The result for `CS(=O)(=O)c1ccc(Oc2cc(F)cc(Cl)c2)c(Br)c1` [Compound 138, 2-Bromo-1-(3-chloro-5-fluorophenoxy)-4-(methylsulfonyl)benzene] reads 4 µM.
The result for `C=CCC1(O)c2c(S(=O)(=O)C(F)F)ccc(Oc3cc(F)cc(F)c3)c2CC1(F)F` (stereo not shown) [Compound 12, 1-allyl-7-(difluoromethylsulfonyl)-4-(3,5-difluorophenoxy)-2,2-difluoro-indan-1-ol] reads 9.8 µM; that for `CS(=O)(=NC#N)c1ccc(Oc2cc(F)cc(F)c2)c2c1C(O)C(F)(F)C2` (stereo not shown) [Example 191, N-((7-(3,5-difluorophenoxy)-2,2-difluoro-3-hydroxy-2,3-dihydro-1H-inden-4-yl)(methyl)(oxo)-λ^6-sulfanylidene)cyanamide], less than 0.005 µM; that for `Cc1c(Oc2cc(F)cc(C#N)c2)ccc(S(=O)(=O)C(F)(F)F)c1Cl` [Compound 144, 3-Fluoro-5-[3-chloro-2-methyl-4-(trifluoromethylsulfonyl)phenoxy]benzonitrile], 0.044 µM.
For `N#Cc1cncc(Oc2ccc(S(=O)(=O)C(F)F)c3c2CC(F)(F)[C@H]3O)c1` [Example 27, (S)-5-((7-((Difluoromethyl)sulfonyl)-2,2-difluoro-1-hydroxy-2,3-dihydro-1H-inden-4-yl)oxy)nicotinonitrile], the IC50 turned out to be 0.25 µM.
Consider `CC(C)(C)OC(=O)NCc1c(S(=O)(=O)C(F)F)ccc(Oc2cc(F)cc(Cl)c2)c1Br` [Compound 83, tert-butyl (2-bromo-3-(3-chloro-5-fluorophenoxy)-6-((difluoromethyl)sulfonyl)benzyl)carbamate], for which inhibition was half-maximal at 3.2 µM (IC50). Compared with the last compound, the IC50 is about 13-fold higher.
The result for `N#Cc1cc(F)cc(Oc2ccc(S(N)(=O)=O)c3c2C[C@@H](F)[C@H]3O)c1` [Compound 334, (2R,3S)-7-(3-cyano-5-fluoro-phenoxy)-2-fluoro-3-hydroxy-indane-4-sulfonamide] reads 0.073 µM; that for `N#Cc1c(Oc2cc(F)cc(Cl)c2)ccc(S(=O)(=O)C(F)(F)F)c1Cl` [Compound 28, 2-Chloro-6-(3-chloro-5-fluorophenoxy)-3-((trifluoromethyl)sulfonyl)benzonitrile], 49.9 µM.
The result for `CS(=O)(=O)c1ccc(Oc2cc(F)cc(C#N)c2)c2c1[C@H](O)C(F)(Cl)C2` (stereo partly drawn) [Example 270, 3-(((1S)-2-chloro-2-fluoro-1-hydroxy-7-(methylsulfonyl)-2,3-dihydro-1H-inden-4-yl)oxy)-5-fluorobenzonitrile] reads 0.097 µM.
The result for `CC(=O)c1c(S(=O)(=O)C(F)(F)F)ccc(Oc2cc(F)cc(C#N)c2)c1C#N` [Compound 79, 2-Acetyl-6-(3-cyano-5-fluorophenoxy)-3-((trifluoromethyl)sulfonyl)benzonitrile] reads 1.3 µM.
In turn, `O=S(=O)(c1ccc(Oc2cc(F)cc(Cl)c2)c(Br)c1CNCCO)C(F)(F)F` [Compound 108, 2-((2-Bromo-3-(3-chloro-5-fluorophenoxy)-6-((trifluoromethyl)sulfonyl)benzyl)amino)ethan-1-ol] came in with an IC50 of 5.8 µM.
The result for `CS(=O)(=O)c1ccc(Oc2cc(F)cc(C#N)c2)c2c1[C@H](O)C(F)(F)[C@@H]2F` [Example 292, 3-fluoro-5-[(1S,3R)-2,2,3-trifluoro-1-hydroxy-7-methylsulfonyl-indan-4-yl]oxy-benzonitrile] reads less than 0.005 µM.
The result for `Cc1nnc(/C=C/c2c(S(=O)(=O)C(F)(F)F)ccc(Oc3cc(F)cc(C#N)c3)c2C)o1` [Compound 151, 3-Fluoro-5-[2-methyl-3-[(E)-2-(5-methyl-1,3,4-oxadiazol-2-yl)vinyl]-4-(trifluoromethylsulfonyl)phenoxy]benzonitrile] reads 1.1 µM.
The result for `N#Cc1c(Oc2cc(F)cc(Cl)c2)ccc(S(=O)(=O)C(F)(F)F)c1F` [Compound 153, 6-(3-chloro-5-fluorophenoxy)-2-fluoro-3-((trifluoromethyl)sulfonyl)benzonitrile] reads 0.23 µM; that for `C=C1CC(O)c2c(S(C)(=O)=O)ccc(Oc3cc(F)cc(Cl)c3)c21` (stereo not shown) [Compound 280, 4-(3-chloro-5-fluorophenoxy)-3-methylene-7-(methylsulfonyl)-2,3-dihydro-1H-inden-1-ol], 3.4 µM; that for `CS(=O)(=O)N=S(=O)(CF)c1ccc(Oc2cc(F)cc(C#N)c2)c2c1[C@H](O)C(F)(F)C2` (stereo partly drawn) [Compound 284, N—(((S)-7-(3-cyano-5-fluorophenoxy)-2,2-difluoro-3-hydroxy-2,3-dihydro-1H-inden-4-yl)(fluoromethyl)(oxo)-λ^6-sulfanylidene)methanesulfonamide], 5.6 µM.
On to `CS(=O)(=O)c1cc(F)c(Oc2cc(F)cc(C#N)c2)c2c1C(O)C(F)(F)C2` (stereo not shown) [Compound 219, 3-Fluoro-5-((2,2,5-trifluoro-1-hydroxy-7-(methylsulfonyl)-2,3-dihydro-1H-inden-4-yl)oxy)benzonitrile], for which the IC50 turned out to be 17 µM.
The compound “[[(1R,3R)-7-(3-cyano-5-fluoro-phenoxy)-1,2,2-trifluoro-3-hydroxy-indan-4-yl]-methyl-oxo-λ^6-sulfanylidene]cyanamide [Compound 320]” registered an IC50 of 1.57 µM. Compared with the last compound, the IC50 is about 11-fold lower.
The compound `N#Cc1cc(F)cc(Oc2ccc(S(=O)(=O)C(F)F)c(C#N)c2Br)c1` [Compound 77, 2-Bromo-3-(3-cyano-5-fluorophenoxy)-6-((difluoromethyl)sulfonyl)benzonitrile] gave an IC50 of 1.9 µM.
The result for `O=S(=O)(c1ccc(Oc2cc(F)cc(Cl)c2)c(Br)c1)C(F)F` [Compound 131, 2-Bromo-1-(3-chloro-5-fluorophenoxy)-4-((difluoromethyl)sulfonyl)benzene] reads 0.31 µM; that for `Cc1c(Cl)cccc1Oc1ccc(S(=O)(=O)C(F)(F)F)cc1Br` [Compound 171, 1-(2-Bromo-4-((trifluoromethyl)sulfonyl)phenoxy)-3-chloro-2-methylbenzene], 1.2 µM.
